This is an account of results in US5410068A, “Succinimidyl trityl compounds and a process for preparing same” (PerSeptive Biosystems, Inc., priority 1989, dated 1995).

The series relates to streptavidin agarose. In words: binding of biotin labeled oligonucleotides and amplified DNA to streptavidin agarose support. The conditions noted are these: purified oligonucleotide. Here is the method:
The major component of each sample was isolated by the method described in Example 12.
Aliquots of the reaction mixture taken at 5 minutes, 55 minutes and 120 minutes were analyzed by reversed-phase HPLC. The analysis indicated complete disappearance of the major component of the crude mixture in favor of a more hydrophobic product within two hours.
Streptavidin agarose (Gibco BRL, Bethesda Md.) was treated before use. The agarose was washed three times with 200 μl of 150 mM NaCl, 10 mM NaH2 PO4 pH 7.2 containing 0.05% NaN3 and 10% acetonitrile. A 25 μl aliquot of 0.5M NaCl in 80% aqueous acetic acid containing 0.5% (w/v) aminoethanethiol hydrochloride was then washed through the resin and then 100 μl of this solution was allowed to react with the streptavidin agarose for 1 hr. The resin was again washed three times with 100 μl of 150 mM NaCl, 10 mM NaH2 PO4 pH 7.2 containing .05% NaN3 and 10% acetonitrile.
Following amplication, a portion of each PCR reaction (50 μl) was incubated with pretreated (see Example 16) streptavidin agarose (100 μl) for 30 minutes. At the end of the incubation, the supernatant was removed and the streptavidin agarose was washed twice with 100 μl of 150 mM NaCl, 10 mM NaH2 PO4 pH 7.2 containing 0.05% NaN3 and 10% acetonitrile (hereafter called streptavidin buffer).The washings were combined with the supernatant. […]

{Biotin} = biotin attached to 5'-amino group

As to “new product: biotinylated 5'-amino group containing partially protected 15-mer 5'-TCCCAGTCACGACGT-3' (treated with 1,6-diaminohexane) (DNA, 5' {Biotin}, backbone and methylation of C not given here; biotin via aminohexyl, partially protected)”, the “binding to streptavidin agarose” value was “shown to bind to streptavidin agarose”.
